Experimental data as given in US20090005396A1, “Use of Pyrazolyl-Pyrimidine Derivatives in the Treatment of Pain” (ASTRAZENECA AB, priority 2005, published 2009).
pIC50: −log10 of the molar value.

What was measured:
human TrkA kinase = molecular target: T1, human TrkA kinase (Homo sapiens, UniProt P04629); experiment: TrkA kinase assay (AlphaScreen); format: biochemical; settings: intracellular domain of His-tagged human TrkA, 20 μM ATP (=Km)
T1 construct: The intracellular domain of a His-tagged human TrkA kinase; His; made in house; host or cells: High Five insect cells
Experimental: TrkA kinase activity is measured in 384-well format using AlphaScreen technology. […] The intracellular domain of a His-tagged human TrkA kinase was expressed in High Five cells. The kinase was incubated with ATP and the biotinylated substrate for 15 minutes at room temperature. The reactions were then stopped by the addition of EDTA, anti-phosphotyrosine antibody (PT-100) coated acceptor beads and streptavidin coated donor beads. After 2 h of incubation in the dark at room temperature, the product was detected using a Fusion Alpha instrument. […] Termination/Detection conditions: 25 mM HEPES pH 7.4, 100 mM NaCl, 48 mM EDTA, 0.1% BSA and 20 μg/ml of donor and acceptor beads.
(§1) When tested in the above in-vitro assay the Trk inhibitory activity of the following examples was measured at the following IC50s.

human TrkB kinase = molecular target: T2, human TrkB kinase (Homo sapiens, UniProt Q16620); experiment: TrkB kinase assay (HTRF); format: biochemical; settings: intracellular domain of HIS-tagged human TrkB
T2 construct: The intracellular domain of a HIS-tagged human TrkB kinase; HIS; made in house; host or cells: SF9 insect cells
Experimental: TrkB kinase activity is being measured against its ability to phosphorylate synthetic tyrosine residues within a generic polypeptide substrate using homogenous time-resolved fluorescence (HTRF) technology. The intracellular domain of a HIS-tagged human TrkB kinase was expressed in SF9 cells and purified using standard nickel column chromatography. After the kinase is incubated with a biotinylated substrate and ATP for 50 minutes at room temperature, the kinase reaction is stopped by the addition of 60 mM EDTA. The reaction is performed in 384 well microtitre plates and reaction products are detected with the addition of strepavidin-linked and phosphotyrosine-specific antibodies using the Tecan Ultra Evolution Microplate Fluometer after an additional 3-hour incubation at room temperature.
as §1

[1] = system: carrageenan monoarthritis; experiment: Rat carrageenan test (carrageenan monoarthritis, pain score); format: in vivo; settings: oral, 80 μmol/kg
Experimental: The compounds used according to the invention when given by systemic administration to mice or rats, specifically reduce pain in the rat carrageenan test as described by Tonussi and Ferreira (Pain 1992, 48, 421-427).
Description of the Rat Carrageenan Test
Experimental procedures. Under isoflurane anesthesia, 40 μL of carrageenan (7.5 mg/mL) was injected into the left tibio-tarsal (ankle) joint from the dorsal side. The injection causes a localized inflammation increasing to a maximum between 4 h to 6 h after induction, after which it gradually decreases, and the animals display decreased weight bearing on and guarding of the limb.
(2R)-2-{[5-Chloro-4-(1H-pyrazol-5-ylamino)pyrimidin-2-yl]amino}-2-(4-fluorophenyl)ethanol was administered 30 min before induction of monoarthritis. The rats were placed in an acrylic chamber and videotaped for 5 min from underneath, 2 h, 2 h30, 3 h, 3 h30, 5 h after drug administration. Subsequently, the weight the rats were willing to put on the injected paw was scored as described in the table below, and defined as the “Pain Score”: […]
Data analysis. Two Way Repeated Measures ANOVA (one factor repetition) followed by Newmans-Keuls method for all pairwise multiple comparison procedures (SigmaStat® 2.03) was used to evaluate group effects. The level of significance was set at p<0.05.

[2] = system: mechanical hypersensitivity; settings: injected into rats with pancreatite; cited from earlier work

T2 sequence (Q16620 455-822 limits assumed): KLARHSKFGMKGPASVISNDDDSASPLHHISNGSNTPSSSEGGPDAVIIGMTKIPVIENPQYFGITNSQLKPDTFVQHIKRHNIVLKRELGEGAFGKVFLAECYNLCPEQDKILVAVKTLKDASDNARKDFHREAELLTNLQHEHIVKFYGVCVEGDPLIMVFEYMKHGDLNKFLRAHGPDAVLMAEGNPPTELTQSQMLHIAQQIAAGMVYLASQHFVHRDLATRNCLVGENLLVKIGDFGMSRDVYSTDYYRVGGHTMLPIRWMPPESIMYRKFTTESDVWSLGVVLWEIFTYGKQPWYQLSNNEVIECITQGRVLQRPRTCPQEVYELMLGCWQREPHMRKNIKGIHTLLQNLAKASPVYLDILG
T1 sequence (P04629 440-796 limits assumed): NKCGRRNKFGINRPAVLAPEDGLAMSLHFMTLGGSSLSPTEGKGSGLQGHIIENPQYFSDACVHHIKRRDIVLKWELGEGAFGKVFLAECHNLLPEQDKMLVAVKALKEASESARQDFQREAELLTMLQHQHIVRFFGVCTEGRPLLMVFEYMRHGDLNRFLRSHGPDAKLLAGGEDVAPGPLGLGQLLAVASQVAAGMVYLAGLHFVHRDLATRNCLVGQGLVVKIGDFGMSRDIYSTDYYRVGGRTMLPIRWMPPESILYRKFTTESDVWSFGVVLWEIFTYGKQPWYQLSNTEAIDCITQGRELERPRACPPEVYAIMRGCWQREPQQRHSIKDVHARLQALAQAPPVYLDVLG

**Q.** What does the source list for `C[C@H](Nc1ncc(Cl)c(Nc2cc(C3CC3)n[nH]2)n1)c1ccc(F)cc1` [5-Chloro-N^4-(5-cyclopropyl-1H-pyrazol-3-yl)-N^2-[(1S)-1-(4-fluorophenyl)ethyl]pyrimidine-2,4-diamine]?
**A.** pIC50 (human TrkA kinase): 7.46; pIC50 (human TrkB kinase): 6.85

**Q.** With `OC[C@H](Nc1ncc(F)c(Nc2cc(C3CC3)[nH]n2)n1)c1ccc(F)cc1` [(2R)-2-({4-[(5-Cyclopropyl-1H-pyrazol-3-yl)amino]-5-fluoropyrimidin-2-yl}amino)-2-(4-fluorophenyl)ethanol] as the compound, how does the pIC50 (human TrkA kinase) read?
**A.** 7.12

**Q.** What about the pIC50 (human TrkB kinase) of the same compound?
**A.** 6.59

**Q.** With `OC[C@H](Nc1ncc(Cl)c(Nc2ccn[nH]2)n1)c1ccc(F)cc1` [(2R)-2-{[5-Chloro-4-(1H-pyrazol-5-ylamino)pyrimidin-2-yl]amino}-2-(4-fluorophenyl)ethanol] as the compound, how does the signs of side-effects [1] read?
**A.** did not show signs of side-effects

**Q.** What about the “pain score induced by carrageenan monoarthritis” value ([1]; given 30 min before induction, within 5 hours after administration, p<0.05) of the same compound?
**A.** significantly reduced

**Q.** With `OCC[C@H](Nc1ncc(Cl)c(Nc2cc(C3CC3)[nH]n2)n1)c1ccc(F)cc1` [(3S)-3-({4-[(5-Cyclopropyl-1H-pyrazol-3-yl)amino]-5-chloropyrimidin-2-yl}amino)-3-(4-fluorophenyl)propan-1-ol] as the compound, how does the pIC50 (human TrkA kinase) read?
**A.** 7.41

**Q.** And the pIC50 (human TrkB kinase)?
**A.** 6.66

**Q.** With `COC(=O)[C@@]1(O)C[C@H]2O[C@]1(C)n1c3ccccc3c3c4c(c5c6ccccc6n2c5c31)C(=O)NC4` [Compound K252a, K252a] as the compound, how does the mechanical hypersensitivity [2] read?
**A.** could suppress mechanical hypersensitivity
